From PubChem BioAssay AID248 (DTP/NCI, 2004)
Where “and” joins values, the source holds several entries; their conditions need not be identical. Equal values may be shown once. Inconclusive results and toxic doses are left out. No stated cut-off is given here; in the data, active means T/C of 150% or more; inactive means T/C below 125%.

System: L1210 leukemia ip in BDF1 mice, survival T/C
Assay: NCI In Vivo Anticancer Drug Screen. Data for tumor model L1210 Leukemia (intraperitoneal) in B6D2F1 (BDF1) mice
Conditions: endpoint: mean survival time, higher = longer survival
Outline: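 Tumor was transplanted into mice, which were then dosed with test compound or vehicle alone. Survival was recorded for each group, and the treated figure was expressed relative to the control figure.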

[1] = dose: 100.0 mg/kg/injection, schedule: Q04DX003 (ip), vehicle: Klucel (hydroxypropylcellulose) (HPC)
[2] = dose: 200.0 mg/kg/injection, schedule: Q04DX003 (ip), vehicle: Klucel (hydroxypropylcellulose) (HPC)
[3] = dose: 400.0 mg/kg/injection, schedule: Q04DX003 (ip), vehicle: Klucel (hydroxypropylcellulose) (HPC)
[4] = dose: 100.0 mg/kg/injection, schedule: Q04DX003 (ip), vehicle: acetone
[5] = dose: 200.0 mg/kg/injection, schedule: Q04DX003 (ip), vehicle: acetone
[6] = dose: 100.0 mg/kg/injection, schedule: Q01DX009 (ip), vehicle: saline with Tween-80
[7] = dose: 100.0 mg/kg/injection, schedule: Q04DX003 (ip), vehicle: saline with Tween-80
[8] = dose: 200.0 mg/kg/injection, schedule: Q01DX009 (ip), vehicle: saline with Tween-80
[9] = dose: 200.0 mg/kg/injection, schedule: Q04DX003 (ip), vehicle: saline with Tween-80
[10] = dose: 400.0 mg/kg/injection, schedule: Q01DX009 (ip), vehicle: saline with Tween-80
[11] = dose: 400.0 mg/kg/injection, schedule: Q04DX003 (ip), vehicle: saline with Tween-80
[12] = dose: 100.0 mg/kg/injection, schedule: Q01DX001 (ip), vehicle: saline
[13] = dose: 200.0 mg/kg/injection, schedule: Q01DX001 (ip), vehicle: saline
[14] = dose: 100.0 mg/kg/injection, schedule: Q01DX001 (ip), vehicle: saline with Tween-80
[15] = dose: 200.0 mg/kg/injection, schedule: Q01DX001 (ip), vehicle: saline with Tween-80
[16] = dose: 100.0 mg/kg/injection, schedule: Q04DX002 (ip), vehicle: Klucel (hydroxypropylcellulose) (HPC)
[17] = dose: 100.0 mg/kg/injection, schedule: Q01DX009 (ip), vehicle: other
[18] = dose: 400.0 mg/kg/injection, schedule: Q01DX001 (ip), vehicle: saline with Tween-80
[19] = dose: 100.0 mg/kg/injection, schedule: Q01DX009 (ip), vehicle: Klucel (hydroxypropylcellulose) (HPC)
[20] = dose: 400.0 mg/kg/injection, schedule: Q01DX001 (ip), vehicle: saline

Measured: T/C

CC1(C)OC(=O)C2C3CCC(C2C(=O)O)C31 (configuration not stated)
inactive: [1] 100 % of control | [2] 96 % of control | [3] 100 % of control

COc1ccccc1C(c1ccccc1OC)N(C)C(C)(C)CO
inactive: dose: 6.25 mg/kg/injection, schedule: Q01DX009 (ip), vehicle: saline sonified 102 % of control | dose: 12.5 mg/kg/injection, schedule: Q01DX009 (ip), vehicle: saline sonified 101 % of control | dose: 25.0 mg/kg/injection, schedule: Q01DX009 (ip), vehicle: saline sonified 106 % of control

CCN1N=Nc2cccc3cccc1c23
inactive: [4] 99 % of control | [5] 100 % of control

NC(=NC1CCC(C2CCC(N)CC2)CC1)C(N)=NC1CCC(C2CCC(N)CC2)CC1 (configuration not stated)
inactive: [6] 98 % of control | [7] 100 % of control | [8] 98 % of control | [9] 91 % of control | [10] 98 % of control | [11] 95 % of control

NCC(=O)c1ccc(Cl)cc1
inactive: [12] 102 % of control | [13] 104 % of control

CN(C(=O)c1c(Cl)[nH]c2ccccc12)c1ccccc1
inactive: dose: 25.0 mg/kg/injection, schedule: Q04DX003 (ip), vehicle: Klucel (hydroxypropylcellulose) (HPC) 96 % of control | dose: 50.0 mg/kg/injection, schedule: Q04DX003 (ip), vehicle: Klucel (hydroxypropylcellulose) (HPC) 95 % of control | [1] 90 % of control

CCCC(C)C(=O)OCP(=O)(COC(=O)C(C)CCC)COC(=O)C(C)CCC (configuration not stated)
inactive: [14] 97 % of control | [15] 89 % of control

CCCCCCC(C)NCC(C)O (configuration not stated)
inactive: dose: 75.0 mg/kg/injection, schedule: Q01DX001 (ip), vehicle: acid diluted with saline 96 % of control

COc1cc(Cl)ccc1NC(=S)Nc1ccccc1
inactive: [16] 97 % of control | dose: 200.0 mg/kg/injection, schedule: Q04DX002 (ip), vehicle: Klucel (hydroxypropylcellulose) (HPC) 101 % of control | dose: 400.0 mg/kg/injection, schedule: Q04DX002 (ip), vehicle: Klucel (hydroxypropylcellulose) (HPC) 97 % of control

O=C(CCC(O)c1ccccc1)c1ccccc1 (configuration not stated)
inactive: [6] 94 % of control | [7] 110 % of control | [8] 94 % of control | [9] 106 % of control | [10] 97 % of control | [11] 97 % of control

O=C(CNC(=O)c1ccccc1)N/N=C\c1c[nH]c2ccccc12
inactive: [6] 97 % of control | [8] 99 % of control | [10] 100 % of control

OCc1ccc(OCc2ccccc2)c(OCc2ccccc2)c1
inactive: [17] 87 % of control | dose: 100.0 mg/kg/injection, schedule: Q04DX003 (ip), vehicle: other 94 % of control | dose: 200.0 mg/kg/injection, schedule: Q04DX003 (ip), vehicle: other 98 % of control | dose: 400.0 mg/kg/injection, schedule: Q04DX003 (ip), vehicle: other 90 % of control

CCCCCCCCCCCCCCCCC(CCCCCCCCCCCCCCCC)C1CCCCC1
inactive: [14] 94 % of control | [15] 94 % of control | [18] 90 % of control

CCOC(=O)C[S][Sn]([Cl])([Cl])[S]CC(=O)OCC
inactive: [14] 100 % of control | [15] 92 % of control | [18] 87 % of control

CCCCS(=O)(=O)N(CC)CC
inactive: dose: 100.0 mg/kg/injection, schedule: Q01DX009 (ip), vehicle: carboxymethylcellulose (CMC) 109 % of control | dose: 200.0 mg/kg/injection, schedule: Q01DX009 (ip), vehicle: carboxymethylcellulose (CMC) 96 % of control

O=C1c2cc([N+](=O)[O-])ccc2-c2c1cccc2[N+](=O)[O-]
inactive: dose: 18.75 mg/kg/injection, schedule: Q01DX001 (ip), vehicle: Klucel (hydroxypropylcellulose) (HPC) 96 % of control | dose: 37.5 mg/kg/injection, schedule: Q01DX001 (ip), vehicle: Klucel (hydroxypropylcellulose) (HPC) 91 % of control | dose: 75.0 mg/kg/injection, schedule: Q01DX001 (ip), vehicle: Klucel (hydroxypropylcellulose) (HPC) 96 % of control | dose: 150.0 mg/kg/injection, schedule: Q01DX001 (ip), vehicle: Klucel (hydroxypropylcellulose) (HPC) 98 % of control | dose: 300.0 mg/kg/injection, schedule: Q01DX001 (ip), vehicle: Klucel (hydroxypropylcellulose) (HPC) 87 % of control

CC/C(C)=N/C(=O)NN
inactive: [14] 103 % of control

NC(=S)N/N=C/c1ccc(Cl)s1
inactive: dose: 25.0 mg/kg/injection, schedule: Q04DX002 (ip), vehicle: Klucel (hydroxypropylcellulose) (HPC) 95 % of control | dose: 50.0 mg/kg/injection, schedule: Q04DX002 (ip), vehicle: Klucel (hydroxypropylcellulose) (HPC) 95 % of control | [16] 98 % of control and 100 % of control

O=C(Nc1ccc(C(Cl)(Cl)Cl)cc1)Nc1cc(Cl)ccc1Cl
inactive: dose: 25.0 mg/kg/injection, schedule: Q01DX009 (ip), vehicle: other 109 % of control | dose: 50.0 mg/kg/injection, schedule: Q01DX009 (ip), vehicle: other 93 % of control | [19] 93 % of control | [17] 95 % of control

O=C(OC/C=C/CC(Cl)(Cl)Cl)C(Cl)(Cl)Cl
inactive: [12] 104 % of control | dose: 100.0 mg/kg/injection, schedule: Q01DX009 (ip), vehicle: acetone 93 % of control | [4] 109 % of control | [13] 112 % of control | dose: 200.0 mg/kg/injection, schedule: Q01DX009 (ip), vehicle: acetone 90 % of control | [5] 103 % of control | [20] 102 % of control | dose: 400.0 mg/kg/injection, schedule: Q04DX003 (ip), vehicle: acetone 93 % of control

N#C[S-].N#C[S-].N#C[S-].N#C[S-].[Co]
inactive: dose: 5.0 mg/kg/injection, schedule: Q01DX001 (ip), vehicle: saline 96 % of control | dose: 10.0 mg/kg/injection, schedule: Q01DX001 (ip), vehicle: saline 104 % of control | dose: 20.0 mg/kg/injection, schedule: Q01DX001 (ip), vehicle: saline 106 % of control

O=CNNCc1c[nH]c(=O)[nH]c1=O
inactive: dose: 50.0 mg/kg/injection, schedule: Q01DX001 (ip), vehicle: saline 96 % of control | [12] 96 % of control | [13] 96 % of control | [20] 98 % of control

O=C(O)c1cc2ccccc2c2cc(C(F)(F)F)ccc12
inactive: dose: 75.0 mg/kg/injection, schedule: Q01DX001 (ip), vehicle: saline 92 % of control | dose: 150.0 mg/kg/injection, schedule: Q01DX001 (ip), vehicle: saline 97 % of control

COc1ccc(OC(=O)Nc2ccccc2OC)cc1
inactive: [19] 97 % of control | [1] 98 % of control | dose: 200.0 mg/kg/injection, schedule: Q01DX009 (ip), vehicle: Klucel (hydroxypropylcellulose) (HPC) 100 % of control | [2] 96 % of control | dose: 400.0 mg/kg/injection, schedule: Q01DX009 (ip), vehicle: Klucel (hydroxypropylcellulose) (HPC) 95 % of control | [3] 95 % of control
